Assay results taken from US10258048B2, “Bacillus sp. strain with antifungal, antibacterial and growth promotion activity” (Marrone Bio Innovations, Inc, priority 2012, dated 2019).

Each molecule was assayed on Bacillus sp. isolate F727 (assay: Antibiotic susceptibility of Bacillus sp. isolate F727, antibiotic discs on Mueller-Hinton agar). Conditions: pre-loaded antibiotic discs (load in ug); 25° C., 48 hours.
Assay type: cell-based
Design: key: +++ indicates highly susceptible (no growth); ++ indicates moderately susceptible (reduced growth); − indicates no susceptibility
Method: Antibiotic susceptibility of Bacillus sp. isolate F727 was tested using antibiotic discs on Muller-Hinton medium. A loopful of F727 was resuspended in 1 mL of sterile deionized water, and 100 μL of this suspension was streaked onto a Mueller-Hinton agar plate. After absorption of the streak into the agar, pre-loaded antibiotic discs were placed on the plate, and the plate was incubated at 25° C. for 48 hours.

Q: For `CC1(C)S[C@@H]2[C@H](NC(=O)[C@H](N)c3ccccc3)C(=O)N2[C@H]1C(=O)O` [Ampicillin], which “Susceptibility of Bacillus sp. F727 to various antibiotics” value (“Susceptibility of Bacillus sp. F727” for short) is on record?
A: +++

Q: How did the “Susceptibility of Bacillus sp. F727” value turn out when `CO/N=C(\C(=O)N[C@@H]1C(=O)N2C(C(=O)O)=C(COC(N)=O)CS[C@H]12)c1ccco1` [Cefuroxime] was run?
A: +++

Q: Which “Susceptibility of Bacillus sp. F727” value does the source give for `O=C(N[C@H](CO)[C@H](O)c1ccc([N+](=O)[O-])cc1)C(Cl)Cl` [Chloramphenicol] here?
A: +++

Q: `O=C(O)c1cn(C2CC2)c2cc(N3CCNCC3)c(F)cc2c1=O` [Ciprofloxacin] was tested. Which “Susceptibility of Bacillus sp. F727” value did it give?
A: +++

Q: For `CC[C@H]1OC(=O)[C@H](C)[C@@H](O[C@H]2C[C@@](C)(OC)[C@@H](O)[C@H](C)O2)[C@H](C)[C@@H](O[C@@H]2O[C@H](C)C[C@H](N(C)C)[C@H]2O)[C@](C)(O)C[C@@H](C)C(=O)[C@H](C)[C@@H](O)[C@]1(C)O` [Erythromycin], which “Susceptibility of Bacillus sp. F727” value is on record?
A: +++

Q: Which “Susceptibility of Bacillus sp. F727” value does the source give for `C[C@@H](O)[C@H]1C(=O)N2C(C(=O)O)=C(SCCN=CN)C[C@H]12` [Imipenem] here?
A: +++

Q: Which “Susceptibility of Bacillus sp. F727” value does the source give for `NC[C@H]1O[C@H](O[C@H]2[C@H](O)[C@@H](O[C@H]3O[C@H](CO)[C@@H](O)[C@H](N)[C@H]3O)[C@H](N)C[C@@H]2N)[C@H](O)[C@@H](O)[C@@H]1O` [Kanamycin] here?
A: +++

Q: Which “Susceptibility of Bacillus sp. F727” value does the source give for `CN(C)[C@@H]1C(O)=C(C(N)=O)C(=O)[C@@]2(O)C(O)=C3C(=O)c4c(O)cccc4[C@@](C)(O)[C@H]3[C@H](O)[C@@H]12` [Oxytetracycline] here?
A: +++

Q: How did the “Susceptibility of Bacillus sp. F727” value turn out when `CCN1CCN(C(=O)N[C@@H](C(=O)N[C@@H]2C(=O)N3[C@@H]2SC(C)(C)[C@@H]3C(=O)O)c2ccccc2)C(=O)C1=O` [Piperacillin] was run?
A: +++

Q: For `[H]/N=C(/N)N[C@H]1[C@H](O)[C@@H](O)[C@H](O[C@@H]2O[C@@H](C)[C@](O)(C=O)[C@H]2O[C@@H]2O[C@@H](CO)[C@H](O)[C@@H](O)[C@@H]2NC)[C@@H](N/C(N)=N\[H])[C@@H]1O` [Streptomycin], which “Susceptibility of Bacillus sp. F727” value is on record?
A: ++

Q: `CN(C)[C@@H]1C(O)=C(C(N)=O)C(=O)[C@@]2(O)C(O)=C3C(=O)c4c(O)cccc4[C@@](C)(O)[C@H]3C[C@@H]12` [Tetracycline] was tested. Which “Susceptibility of Bacillus sp. F727” value did it give?
A: +++

Q: With Gentamicin as the molecule, how does the “Susceptibility of Bacillus sp. F727” value read?
A: +++

Q: Which “Susceptibility of Bacillus sp. F727” value does the source give for Penicillin here?
A: +++

Q: Sulphamethoxazole-Trimethoprim was tested. Which “Susceptibility of Bacillus sp. F727” value did it give?
A: +++
